Measurements published in patent US20120138290A1, “METHODS TO STIMULATE BIOGENIC METHANE PRODUCTION FROM HYDROCARBON-BEARING FORMATIONS” (SYNTHETIC GENOMICS, INC., priority 2010, published 2012).
Where “and” joins values, the source holds several entries; their conditions need not be identical. Equal entries are not always repeated.

Legend:
[1] = system: functional microbial subcommunity (inoculum 2L-245 from upflow reactor); assay: Stimulation of methane production: batch cultures with additive/stimulant, with or without coal, headspace methane by gas chromatography; format: cell-based
Method: The availability of an inoculum of a functional microbial subcommunity capable of producing methane from coal in vitro prompted laboratory experiments where various stimulants were tested for their effect on methane production. […] The experiments were conducted at three different levels of additives (0.5×, 1× and 2×): additives (stimulants) were added in the following three concentrations. […] DMY media: DM media composition in milli-Q water is made as described above with the addition of 0.5 g/L yeast extract. DMSC media: DM media in milli-Q water is made as described above with the addition of 100 g/L sterile, anaerobic, sub-bituminous coal from the San Juan Basin. DMSCY media: DM media in milli-Q water is made as described above with the addition of 100 g/L sterile, anaerobic, sub-bituminous coal from the San Juan Basin and 0.5 g/L yeast extract. The coal used in these experiments originated from the San Juan Basin (BHP Billiton, Tex.). […] Each stimulant was tested in the presence or absence of coal. The experiments were conducted at three different concentrations of additives (0.5× (low), 1× (medium), and 2× (high)) as described above. Each sample type was conducted in 4 replicates. […] Control sample types were media alone, media plus coal, media plus yeast extract and media plus coal and yeast extract. At each time point, headspace measurements were taken using gas chromatography (microGC […], Agilent Technologies, Inc.). […] Each experiment was performed in quadruplicate. Methane at time 0 was assumed to be 0%.

[2] = system: formate-utilizing, methane-producing species in the enrichment culture; assay: Stimulation of methane production by vanadium in cultures utilizing formate; format: cell-based; settings: for Methane (% in head space volume of 21 ml): DM media with 50 mM formate, 48 hours at 50° C., replicate cultures
Method: The anaerobic reactor system described above in Example 1 contains formate-utilizing, methane-producing species in the enrichment culture. Methanogens in the culture were previously identified by 16sRNA sequencing.
A 10% vol./vol. inoculum was taken from the anaerobic reactor system described above in Example 1, and the effect of vanadium on methane production by methanogens utilizing formate as a carbon and energy source was determined.
Cultures, established with DM media (prepared as described above) containing 50 mM formate as the sole carbon and energy source, were sub-cultured with the same media (in the absence of vanadium) or media supplemented with either 5 or 10 μM VCl3. Methane production was measured after 48 hours of growth at 50° C.

[3] = DMSCY (coal), 125 μM Na2SO3, week 1
[4] = DMSCY (coal), 125 μM Na2SO3, week 3
[5] = DMSCY (coal), 125 μM Na2SO3, week 5
[6] = DMSCY (coal), 250 μM Na2SO3, week 1
[7] = DMSCY (coal), 250 μM Na2SO3, week 3
[8] = DMSCY (coal), 250 μM Na2SO3, week 5
[9] = DMSCY (coal), 500 μM Na2SO3, week 1
[10] = DMSCY (coal), 500 μM Na2SO3, week 3
[11] = DMSCY (coal), 500 μM Na2SO3, week 5
[12] = DMY (no coal), 125 μM Na2SO3, week 1
[13] = DMY (no coal), 125 μM Na2SO3, week 3
[14] = DMY (no coal), 125 μM Na2SO3, week 5
[15] = DMY (no coal), 250 μM Na2SO3, week 1
[16] = DMY (no coal), 250 μM Na2SO3, week 3
[17] = DMY (no coal), 250 μM Na2SO3, week 5
[18] = DMY (no coal), 500 μM Na2SO3, week 1
[19] = DMY (no coal), 500 μM Na2SO3, week 3
[20] = DMY (no coal), 500 μM Na2SO3, week 5
[21] = DMSCY (coal), 5 μM VCl3, week 1
[22] = DMSCY (coal), 5 μM VCl3, week 3
[23] = DMSCY (coal), 5 μM VCl3, week 5
[24] = DMSCY (coal), 10 μM VCl3, week 1
[25] = DMSCY (coal), 10 μM VCl3, week 3
[26] = DMSCY (coal), 10 μM VCl3, week 5
[27] = DMY (no coal), 5 μM VCl3, week 1
[28] = DMY (no coal), 5 μM VCl3, week 3
[29] = DMY (no coal), 5 μM VCl3, week 5
[30] = DMY (no coal), 10 μM VCl3, week 1
[31] = DMY (no coal), 10 μM VCl3, week 3
[32] = DMY (no coal), 10 μM VCl3, week 5
[33] = DMSCY (coal), 5.0 μM MnCl2, week 3
[34] = DMSCY (coal), 5.0 μM MnCl2, week 5
[35] = DMSCY (coal), 10 μM MnCl2, week 1
[36] = DMSCY (coal), 10 μM MnCl2, week 3
[37] = DMSCY (coal), 10 μM MnCl2, week 5
[38] = DMY (no coal), 5.0 μM MnCl2, week 1
[39] = DMY (no coal), 5.0 μM MnCl2, week 3
[40] = DMY (no coal), 5.0 μM MnCl2, week 5
[41] = DMY (no coal), 10 μM MnCl2, week 1
[42] = DMY (no coal), 10 μM MnCl2, week 3
[43] = DMY (no coal), 10 μM MnCl2, week 5

O=S([O-])[O-].[Na+].[Na+] [Na2SO3, sodium sulfite]
methane production (Average) [1, 3]: 0.27 | methane production (RepA-Rep D) [1, 3]: 0.26 and 0.24 and 0.25 and 0.32 | methane production (Average) [1, 4]: 1.02 | methane production (RepA-Rep D) [1, 4]: 1.04 and 0.97 and 0.99 and 1.06 | methane production (Average) [1, 5]: 1.25 | methane production (RepA-Rep D) [1, 5]: 1.21 and 1.22 and 1.25 and 1.31 | methane production (Average) [1, 6]: 20 | methane production (RepA-Rep D) [1, 6]: 0.23 and 0.18 and 0.19 and 0.20 | methane production (Average) [1, 7]: 1.07 | methane production (RepA-Rep D) [1, 7]: 1.04 and 1.02 and 1.06 and 1.18 | methane production (Average) [1, 8]: 1.42 | methane production (RepA-Rep D) [1, 8]: 1.26 and 1.24 and 1.45 and 1.74 | methane production (Average) [1, 9]: 0.14 | methane production (RepA-Rep D) [1, 9]: 0.14 and 0.13 and 0.15 | methane production (Average) [1, 10]: 1.04 | methane production (RepA-Rep D) [1, 10]: 1.01 and 0.98 and 1.07 and 1.04 | methane production (Average) [1, 11]: 1.35 | methane production (RepA-Rep D) [1, 11]: 1.34 and 1.26 and 1.37 and 1.41 | methane production (Average) [1, 12]: 0.21 | methane production (RepA-Rep D) [1, 12]: 0.20 and 0.21 and 0.22 | methane production (Average) [1, 13]: 0.71 | methane production (RepA-Rep D) [1, 13]: 0.71 and 0.68 and 0.69 and 0.75 | methane production (Average) [1, 14]: 0.68 | methane production (RepA-Rep D) [1, 14]: 0.66 and 0.69 and 0.71 | methane production (Average) [1, 15]: 0.14 | methane production (RepA-Rep D) [1, 15]: 0.14 and 0.15 and 0.13 | methane production (Average) [1, 16]: 0.67 | methane production (RepA-Rep D) [1, 16]: 0.67 and 0.63 and 0.65 and 0.72 | methane production (Average) [1, 17]: 0.62 | methane production (RepA-Rep D) [1, 17]: 0.62 and 0.59 and 0.65 | methane production (Average) [1, 18]: 0.09 | methane production (RepA-Rep D) [1, 18]: 0.09 and 0.08 and 0.10 | methane production (Average) [1, 19]: 0.68 | methane production (RepA-Rep D) [1, 19]: 0.71 and 0.64 and 0.74 | methane production (Average) [1, 20]: 0.74 | methane production (RepA-Rep D) [1, 20]: 0.83 and 0.68 and 0.76

[Cl-].[Cl-].[Cl-].[V+3] [VCl3, vanadium (III) chloride]
methane production (Average) [1, 21]: 0.27 | methane production (RepA-Rep D) [1, 21]: 0.30 and 0.26 and 0.25 | methane production (Average) [1, 22]: 1.50 | methane production (RepA-Rep D) [1, 22]: 1.51 and 1.40 and 1.21 and 1.88 | methane production (Average) [1, 23]: 2.44 | methane production (RepA-Rep D) [1, 23]: 2.41 and 2.28 and 1.95 and 3.13 | methane production (Average) [1, 24]: 0.25 | methane production (RepA-Rep D) [1, 24]: 0.29 and 0.25 and 0.24 | methane production (Average) [1, 25]: 1.06 | methane production (RepA-Rep D) [1, 25]: 1.15 and 1.04 and 1.01 | methane production (Average) [1, 26]: 1.36 | methane production (RepA-Rep D) [1, 26]: 1.49 and 1.31 and 1.30 and 1.33 | methane production (Average) [1, 27]: 0.20 | methane production (RepA-Rep D) [1, 27]: 0.21 and 0.20 | methane production (Average) [1, 28]: 0.71 | methane production (RepA-Rep D) [1, 28]: 0.78 and 0.69 and 0.67 and 0.80 | methane production (Average) [1, 29]: 0.70 | methane production (RepA-Rep D) [1, 29]: 0.75 and 0.70 and 0.68 and 0.67 | methane production (Average) [1, 30]: 0.22 | methane production (RepA-Rep D) [1, 30]: 0.21 and 0.251 and 0.19 and 0.22 | methane production (Average) [1, 31]: 0.77 | methane production (RepA-Rep D) [1, 31]: 0.85 and 0.7495 and 0.70 and 0.78 | methane production (Average) [1, 32]: 0.76 | methane production (RepA-Rep D) [1, 32]: 0.76 and 0.82 and 0.70 and 0.77 | effect on the production of methane ([1]; intermediate concentration of the stimulant (FIGS. 1A, 1B, 2A)): statistically significant positive effect | dependence of methane production on coal ([1]; with or without coal): only observed in the presence of coal | Methane (% in head space volume of 21 ml) ([2]; 5 μM VCl3 final): 2.0% and 1.2% | Methane (% in head space volume of 21 ml) ([2]; 10 μM VCl3 final): 1.9% and 1.4% | methane formation relative to cultures without VCl3 (average) ([2]; VCl3-supplemented cultures (5 or 10 μM), 50 mM formate, 48 hours): approximately 2 fold

manganese chloride [MnCl2]
methane production (Average) ([1]; DMSCY (coal), 5.0 μM MnCl2, week 1): 0.44 | methane production (Average) [1, 33]: 1.56 | methane production (RepA-Rep D) [1, 33]: 1.51 and 1.55 and 1.53 and 1.64 | methane production (Average) [1, 34]: 1.82 | methane production (RepA-Rep D) [1, 34]: 1.94 and 1.81 and 1.70 and 1.85 | methane production (Average) [1, 35]: 0.42 | methane production (RepA-Rep D) [1, 35]: 0.44 and 0.41 and 0.43 | methane production (Average) [1, 36]: 1.46 | methane production (RepA-Rep D) [1, 36]: 1.45 and 1.49 and 1.43 and 1.48 | methane production (Average) [1, 37]: 1.72 | methane production (RepA-Rep D) [1, 37]: 1.63 and 1.82 and 1.71 and 1.70 | methane production (Average) [1, 38]: 0.34 | methane production (RepA-Rep D) [1, 38]: 0.34 and 0.33 and 0.36 | methane production (Average) [1, 39]: 0.92 | methane production (RepA-Rep D) [1, 39]: 0.92 and 0.90 and 0.94 | methane production (Average) [1, 40]: 0.87 | methane production (RepA-Rep D) [1, 40]: 0.89 and 0.86 and 0.85 and 0.88 | methane production (Average) [1, 41]: 0.36 | methane production (RepA-Rep D) [1, 41]: 0.39 and 0.38 and 0.35 | methane production (Average) [1, 42]: 1.02 | methane production (RepA-Rep D) [1, 42]: 1.00 and 1.05 and 1.04 and 1.01 | methane production (Average) [1, 43]: 0.97 | methane production (RepA-Rep D) [1, 43]: 0.89 and 1.03 and 0.96 and 1.01
